Assay results taken from PubChem BioAssay AID328 (DTP/NCI, 2004).
Inconclusive results and toxic doses are left out.

System: BDF1 mice, P388 leukemia ip, median survival T/C
Assay: NCI In Vivo Anticancer Drug Screen. Data for tumor model P388 Leukemia (intraperitoneal) in B6D2F1 (BDF1) mice
Conditions: endpoint: median survival time, higher = longer survival
Outline: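 Mice carrying the transplantable tumour receive compound or vehicle. Survival is followed in each arm, and the treated measure is divided by the vehicle measure.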

[1] = dose: 100.0 mg/kg/injection, schedule: Q04DX003 (ip), vehicle: saline with Tween-80
[2] = dose: 200.0 mg/kg/injection, schedule: Q04DX003 (ip), vehicle: saline with Tween-80
[3] = dose: 400.0 mg/kg/injection, schedule: Q04DX003 (ip), vehicle: saline with Tween-80
[4] = dose: 100.0 mg/kg/injection, schedule: Q04DX003 (ip), vehicle: saline
[5] = dose: 200.0 mg/kg/injection, schedule: Q04DX003 (ip), vehicle: saline
[6] = dose: 100.0 mg/kg/injection, schedule: Q01DX009 (ip), vehicle: saline with Tween-80
[7] = dose: 200.0 mg/kg/injection, schedule: Q01DX009 (ip), vehicle: saline with Tween-80
[8] = dose: 400.0 mg/kg/injection, schedule: Q01DX009 (ip), vehicle: saline with Tween-80

Cc1oc(-c2ccccc2)nc1C(=O)O
T/C [1]: 106 % of control
T/C [2]: 100 % of control
T/C [3]: 102 % of control

O=C(c1ccccc1Cl)n1c2c(c3ccccc31)CCCC2
T/C [1]: 100 % of control
T/C [2]: 104 % of control
T/C [3]: 100 % of control

CC1CCC(NC2=NCCO2)C(C)C1 (centres undefined)
T/C (dose: 12.5 mg/kg/injection, schedule: Q04DX003 (ip), vehicle: saline with Tween-80): 95 % of control
T/C (dose: 25.0 mg/kg/injection, schedule: Q04DX003 (ip), vehicle: saline with Tween-80): 100 % of control
T/C (dose: 50.0 mg/kg/injection, schedule: Q04DX003 (ip), vehicle: saline with Tween-80): 100 % of control

C#CCOCC(O)CN (centres undefined)
T/C (dose: 100.0 mg/kg/injection, schedule: Q01DX009 (ip), vehicle: saline): 100 % of control
T/C [4]: 110 % of control
T/C (dose: 200.0 mg/kg/injection, schedule: Q01DX009 (ip), vehicle: saline): 120 % of control
T/C [5]: 100 % of control
T/C (dose: 400.0 mg/kg/injection, schedule: Q01DX009 (ip), vehicle: saline): 104 % of control
T/C (dose: 400.0 mg/kg/injection, schedule: Q04DX003 (ip), vehicle: saline): 100 % of control

NC(=S)N/N=C\c1c[nH]c2nccnc12
T/C (dose: 25.0 mg/kg/injection, schedule: Q01DX009 (ip), vehicle: water): 106 % of control
T/C (dose: 50.0 mg/kg/injection, schedule: Q01DX009 (ip), vehicle: water): 92 % of control
T/C (dose: 100.0 mg/kg/injection, schedule: Q01DX009 (ip), vehicle: water): 100 % of control
T/C (dose: 400.0 mg/kg/injection, schedule: Q01DX009 (ip), vehicle: water): 86 % of control

CCN(CC)C(=S)SSC(=S)N(CC)CC
T/C (dose: 75.0 mg/kg/injection, schedule: Q01DX001 (ip), vehicle: Klucel (hydroxypropylcellulose) (HPC)): 104 % of control
T/C (dose: 150.0 mg/kg/injection, schedule: Q01DX001 (ip), vehicle: Klucel (hydroxypropylcellulose) (HPC)): 104 % of control
T/C (dose: 300.0 mg/kg/injection, schedule: Q01DX001 (ip), vehicle: Klucel (hydroxypropylcellulose) (HPC)): 95 % of control

CC1=NNC(=O)C1CCO (centres undefined)
T/C (dose: 50.0 mg/kg/injection, schedule: Q01DX009 (ip), vehicle: Klucel (hydroxypropylcellulose) (HPC)): 86 % of control
T/C (dose: 100.0 mg/kg/injection, schedule: Q01DX009 (ip), vehicle: Klucel (hydroxypropylcellulose) (HPC)): 104 % of control
T/C (dose: 175.0 mg/kg/injection, schedule: Q01DX009 (ip), vehicle: Klucel (hydroxypropylcellulose) (HPC)): 90 % of control
T/C (dose: 200.0 mg/kg/injection, schedule: Q01DX009 (ip), vehicle: Klucel (hydroxypropylcellulose) (HPC)): 122 % of control
T/C (dose: 265.0 mg/kg/injection, schedule: Q01DX009 (ip), vehicle: Klucel (hydroxypropylcellulose) (HPC)): 104 % of control
T/C (dose: 400.0 mg/kg/injection, schedule: Q01DX009 (ip), vehicle: Klucel (hydroxypropylcellulose) (HPC)): 95 % of control

Oc1ccc(C=Nc2ccccc2N=Cc2ccc(O)c(O)c2)cc1O
T/C [6]: 109 % of control
T/C [1]: 110 % of control
T/C [7]: 109 % of control
T/C [2]: 105 % of control
T/C [8]: 104 % of control
T/C [3]: 110 % of control

CCCCCC(=O)O[C@]1(C(C)=O)CC[C@H]2[C@@H]3CCC4=CC(=O)CC[C@]4(C)[C@H]3CC[C@@]21C
T/C (dose: 44.0 mg/kg/injection, schedule: Q01DX009 (ip), vehicle: saline with Tween-80): 105 % of control
T/C (dose: 66.0 mg/kg/injection, schedule: Q01DX009 (ip), vehicle: saline with Tween-80): 110 % of control
T/C [6]: 90 % of control
T/C [1]: 100 % of control
T/C (dose: 150.0 mg/kg/injection, schedule: Q01DX009 (ip), vehicle: saline with Tween-80): 100 % of control
T/C [7]: 105 % of control
T/C [2]: 100 % of control
T/C [8]: 100 % of control
T/C [3]: 100 % of control

CN1CCCC(C(=O)c2ccccc2)S1(=O)=O (centres undefined)
T/C (dose: 100.0 mg/kg/injection, schedule: Q04DX002 (ip), vehicle: saline with Tween-80): 104 % of control
T/C (dose: 200.0 mg/kg/injection, schedule: Q04DX002 (ip), vehicle: saline with Tween-80): 114 % of control
T/C (dose: 400.0 mg/kg/injection, schedule: Q04DX002 (ip), vehicle: saline with Tween-80): 107 % of control

Cc1cnc2c(C)cccc2c1/C=C/c1ccc(N(C)C)cc1
T/C (dose: 50.0 mg/kg/injection, schedule: Q01DX009 (ip), vehicle: saline with Tween-80): 116 % of control
T/C [6]: 116 % of control
T/C [7]: 103 % of control

C[N+](C)(Cn1nc(Cl)c2ccc([N+](=O)[O-])cc21)Cn1nc(Cl)c2ccc([N+](=O)[O-])cc21
T/C [1]: 100 % of control
T/C [2]: 108 % of control

CC(C)(O)c1cc(Cl)ccc1Sc1ccccc1
T/C [1]: 105 % of control
T/C [2]: 91 % of control
T/C [3]: 108 % of control

CCN(CC)C(=O)c1ccncc1
T/C [4]: 109 % of control
T/C [5]: 100 % of control

O=C1C(C(O)c2ccccc2)SC(c2ccccc2)N1c1ccccc1 (centres undefined)
T/C (dose: 12.5 mg/kg/injection, schedule: Q04DX003 (ip), vehicle: Klucel (hydroxypropylcellulose) (HPC)): 96 % of control
T/C (dose: 25.0 mg/kg/injection, schedule: Q04DX003 (ip), vehicle: Klucel (hydroxypropylcellulose) (HPC)): 96 % of control
T/C (dose: 50.0 mg/kg/injection, schedule: Q04DX003 (ip), vehicle: Klucel (hydroxypropylcellulose) (HPC)): 96 % of control
T/C (dose: 400.0 mg/kg/injection, schedule: Q04DX003 (ip), vehicle: Klucel (hydroxypropylcellulose) (HPC)): 90 % of control

CC(=O)/C(N=Nc1ccccc1)=C(\C)O
T/C (dose: 25.0 mg/kg/injection, schedule: Q01DX009 (sc), vehicle: olive oil, sesame oil, peanut oil): 100 % of control
T/C (dose: 50.0 mg/kg/injection, schedule: Q01DX009 (sc), vehicle: olive oil, sesame oil, peanut oil): 96 % of control
T/C (dose: 100.0 mg/kg/injection, schedule: Q01DX009 (sc), vehicle: olive oil, sesame oil, peanut oil): 112 % of control

CCN(CC)P(=O)(N1CC1)N1CC1
T/C (dose: 16.5 mg/kg/injection, schedule: Q04DX003 (ip), vehicle: saline): 272 % of control
T/C (dose: 25.0 mg/kg/injection, schedule: Q04DX003 (ip), vehicle: saline): 90 % of control

CCC[N+](C)(C)CCCCOCCCC[N+](C)(C)CCC
T/C (dose: 3.0 mg/kg/injection, schedule: Q01DX009 (ip), vehicle: saline): 88 % of control
T/C (dose: 3.0 mg/kg/injection, schedule: Q04DX003 (ip), vehicle: saline): 100 % of control
T/C (dose: 6.0 mg/kg/injection, schedule: Q01DX009 (ip), vehicle: saline): 92 % of control
T/C (dose: 6.0 mg/kg/injection, schedule: Q04DX003 (ip), vehicle: saline): 116 % of control
T/C (dose: 6.25 mg/kg/injection, schedule: Q04DX003 (ip), vehicle: saline): 113 % of control
T/C (dose: 12.0 mg/kg/injection, schedule: Q01DX009 (ip), vehicle: saline): 96 % of control
T/C (dose: 12.0 mg/kg/injection, schedule: Q04DX003 (ip), vehicle: saline): 100 % of control
T/C (dose: 12.5 mg/kg/injection, schedule: Q04DX003 (ip), vehicle: saline): 109 % of control

Cc1cc(Cl)c(C)c(Cl)c1Cl
T/C [6]: 90 % of control
T/C [7]: 95 % of control
T/C [8]: 86 % of control

COC1NC(=O)NC(=O)C1=[N+]=[N-] (centres undefined)
T/C (dose: 3.3 mg/kg/injection, schedule: Q01DX009 (ip), vehicle: saline with Tween-80): 170 % of control
T/C (dose: 5.0 mg/kg/injection, schedule: Q01DX009 (ip), vehicle: saline with Tween-80): 175 % of control

CNC(CCc1ccccc1)C(=O)O (centres undefined)
T/C (dose: 50.0 mg/kg/injection, schedule: Q04DX003 (ip), vehicle: saline sonified): 95 % of control
T/C (dose: 100.0 mg/kg/injection, schedule: Q04DX003 (ip), vehicle: saline sonified): 91 % of control
T/C (dose: 200.0 mg/kg/injection, schedule: Q04DX003 (ip), vehicle: saline sonified): 91 % of control

N/C(=N\OS(=O)(=O)c1ccccc1)OC1CCCCC1
T/C [1]: 99 % of control
T/C [2]: 98 % of control
T/C [3]: 98 % of control
